Measurements from US20150328269A1, “PREPARATION FOR RADIO PROTECTION” (LYCORED LTD., priority 2012, published 2015).

Assays:
[1] = Radiation-induced oxidation of liposomes (MDA/TBA read-out); assay type: biochemical, hen; details: for Radioprotection in %: 500 Gy Co60 γ-quanta, 84.8 Gy/min, liposomes 2 mg/ml phospholipids in saline solution
Description: (§1) The biologic membranes play the most important role in cell vital activity. The high sensibility of lipids and phospholipids, which are the main structural components of biomembranes, as to oxidative stress, including those caused by irradiation, is the consequence of the high content of unsaturated fatty acids. The liposomes being obtained from phospholipids of hen's egg yolk were used as a model of the biomembranes. The phospholipids are able to form liposome emulsions in water; this allows studying in model experiments the radioprotective and antioxidant properties of various water-soluble and water-insoluble compounds, including water-insoluble phytoene as well. To obtain the liposomes, 20 mg of the phospholipids, being dissolved in chloroform, were entered into a conical vial and dried in vacuum. Then 2 ml of a saline solution containing 0.15 M NaCl, 0.005 M KCl, 0.0012 M KH2PO4, 0.0012 M Na2HPO4 at pH 7.4 was added to the dried sample. The mixture has been shaken, input into an ultrasonic bath for 30 seconds, and then the total volume was increased up to 10 ml, stirred, treated with ultrasound, and as the result the liposome suspension with the phospholipid concentration of 2 mg/ml was received. […] Optical density of the colored TBA products was calculated by the optical density data, considering the molar extinction coefficient at 532 nm equals to 156,000 mol^-1·cm^-1. […] Taking as 100% the level of the MDA increment at the induced liposome oxidation above spontaneous phospholipids oxidation in the absence of phytoene, and taking into account the fact that the presence of phytoene in the liposomes can modify the level of the spontaneous oxidation, the protection efficacy (PE)OK in the […] of the induced liposome oxidation was calculated by the formula: (PE)OK=(CPOK-CPK)·100/(COK-CK), in which CPK , CPOK are the MDA concentrations in the liposomes with phytoene before and after the liposome induced oxidation respectively; CK, COK (are the MDA concentrations in the control liposomes (without phytoene) before and after the liposome induced oxidation respectively.

[2] = Fe++-induced oxidation of liposomes (MDA/TBA read-out); assay type: biochemical, hen; details: for Protection against Fe++-induced oxidation in %: 50 μM Fe++, 30 minutes, room temperature
Description: as §1

In the case of `CC(C)=CCC/C(C)=C/CC/C(C)=C/CC/C(C)=C/C=C/C=C(\C)CC/C=C(\C)CC/C=C(\C)CCC=C(C)C` (stereo in doubt) [phytoene], the Radioprotection in % ([1]; phytoene:phospholipid 1:10) is reported as 62.0 ± 10.4%, the Radioprotection in % ([1]; phytoene:phospholipid 1:100) is reported as 37.2 ± 5.2% and the “Protection of liposomes against oxidative stress induced by the radiation (in words)” value ([1]; summary statement) is reported as “protects the liposomes against the oxidative stress”. The “Protection against Fe++-induced oxidation in %” value ([2]; phytoene:phospholipid 1:10) was 50.9 ± 6.6%, the “Protection against Fe++-induced oxidation in %” value ([2]; phytoene:phospholipid 1:100) was 18.7 ± 11.5% and the “Protection of liposomes against oxidative stress induced with ferrous iron ions (in words)” value ([2]; summary statement) was “protects the liposomes against the oxidative stress”.
